The values that follow come from US6531465B1 (priority 1995, dated 2003).

In assay [1] the test system is Pseudomonas aeruginosa strain 27853. In words: Agar Dilution Test (NCCLS), Pseudomonas aeruginosa. It is filed as cell-based. An excerpt: In particular, the active compounds of the invention show antimicrobial, e.g. antibacterial, activity against gram negative and gram positive bacteria such as Pseudomonas, e.g. Pseudomonas aeruginosa, Pseudomonas fluorescens; Enterobacter, e.g. Enterobacter cloacae; Enterococcus, e.g. Enterococcus faecalis; Moraxella, e.g. Moraxella catarrhalis; Haemophilus, e.g. Haemophilus influenza; Klebsiella, e.g. Klebsiella edwardsii, Klebsiella pneumoniae; Streptococcus, e.g. Streptococcus pneumoniae, Streptococcus durans, Streptococcus faecium, Streptococcus pyogenes; Staphylococcus, e.g. Staphylococcus aureus, Staphylococcus pyogenes; Escherichia, e.g. Escherichia coli; and Proteus, e.g. Proteus mirabilis in vitro in the Agar Dilution Test according to National Commitee for Clinical Laboratory Standards (NCCLS) 1993, Document M7-A3Vol.13, No. 25: “Methods for dilution Antimicrobial Susceptibility Tests for Bacteria that Grow Aerobically—Third Edition, Approved Standard” and in vivo in the septikaemic mouse model. […]
It has, for example, been determined that the MHK (μg/ml) of the compound of Example 139 against, for example Enterococcus faecalis strains ATTC 29212 or ATCC 51299, is of ca. 0.08 to 0.25; ainst Staphylococcus aureus strains ATCC 29213 or ATCC 9144 is of ca. 0.2 to 0.4 and against Pseudomonas aeruginosa strain 27853 is ca. 0.8.
(In general: In agar dilution the substance is mixed into plates at graded concentrations.)

The subject of assay [2] is Streptococcus pneumoniae, strain ATCC 49619. In words: Agar Dilution Test (NCCLS), Streptococcus pneumoniae. The format is cell-based. The following applies: Example 139 tested in form of the trihydrochloride. An excerpt:
In particular, the active compounds of the invention show antimicrobial, e.g. antibacterial, activity against gram negative and gram positive bacteria such as Pseudomonas, e.g. Pseudomonas aeruginosa, Pseudomonas fluorescens; Enterobacter, e.g. Enterobacter cloacae; Enterococcus, e.g. Enterococcus faecalis; Moraxella, e.g. Moraxella catarrhalis; Haemophilus, e.g. Haemophilus influenza; Klebsiella, e.g. Klebsiella edwardsii, Klebsiella pneumoniae; Streptococcus, e.g. Streptococcus pneumoniae, Streptococcus durans, Streptococcus faecium, Streptococcus pyogenes; Staphylococcus, e.g. Staphylococcus aureus, Staphylococcus pyogenes; Escherichia, e.g. Escherichia coli; and Proteus, e.g. Proteus mirabilis in vitro in the Agar Dilution Test according to National Commitee for Clinical Laboratory Standards (NCCLS) 1993, Document M7-A3Vol.13, No. 25: “Methods for dilution Antimicrobial Susceptibility Tests for Bacteria that Grow Aerobically—Third Edition, Approved Standard” and in vivo in the septikaemic mouse model. The active compounds of the invention show activity in the mouse when administerd at dosages from about 0.05 to 50 mg/kg body weight (ED50 values).The active compounds show an MHK(μg/ml) in the Agar Dilution Test from about 0.005 to ca. 50. The active compounds of the invention show an surprising overall activity spectrum.

Consider “7-[[(5-Amino-1,2,4-thiadiazol-3-yl)-(Z)-(fluormethoxyimino)acetyl]amino]-3-[[(piperazinoiminomethyl)hydrazono]methyl]-3-cephem-4-carboxylic acid [Example 139]”, for which the MHK entry is “ca. 0.8 μg/ml” in assay [1] and “ca. 0.01 μg/ml” in assay [2]. Turning to `CO/N=C(\C(=O)N[C@@H]1C(=O)N2C(C(=O)O)=C(CSc3nc(=O)c(=O)[nH]n3C)CS[C@H]12)c1csc(N)n1` [ceftriaxone, reference compound], in assay [2], the MHK entry is recorded as “ca. 0.02 μg/ml”.
